The values below come from ChEMBL document CHEMBL5537181 (J Med Chem, 2024).

The subject of one assay is Rattus norvegicus. The experiment in a line: Analgesic activity in Chronic constriction injury rat model assessed as decrease in hyperalgesia at 300 microg/kg,IM administrated every 2 hrs and measured after 24 hrs. It counts as functional, organism-based. The note with it: dose 300.0 µg/kg.
Assay [1] concerns the target Voltage-dependent N-type calcium channel subunit alpha-1B (Homo sapiens, UniProt Q00975). As to the kind of experiment: Inhibition of human Cav2.2 channel transfected in HEK293T cells co-expressed with human GABAB receptor assessed as inhibition of Cav2.2-mediated Ba2+ current measured for 3 to 5 days by whole-cell patch clamp assay. It counts as cell-based.
In assay [2] the target is Neuronal acetylcholine receptor; alpha9/alpha10 (Homo sapiens, UniProt Q9GZZ6+Q9UGM1). As to the kind of experiment: Antagonist activity at human alpha9alpha10 nAChR expressed in acetylcholine-induced Xenopus laevis oocytes assessed as inhibition of acetylcholine-induced current by two electrode voltage-clamp assay. It counts as cell-based, Oocyte.
Sequence of Neuronal acetylcholine receptor; alpha9/alpha10 (Q9UGM1 whole entry): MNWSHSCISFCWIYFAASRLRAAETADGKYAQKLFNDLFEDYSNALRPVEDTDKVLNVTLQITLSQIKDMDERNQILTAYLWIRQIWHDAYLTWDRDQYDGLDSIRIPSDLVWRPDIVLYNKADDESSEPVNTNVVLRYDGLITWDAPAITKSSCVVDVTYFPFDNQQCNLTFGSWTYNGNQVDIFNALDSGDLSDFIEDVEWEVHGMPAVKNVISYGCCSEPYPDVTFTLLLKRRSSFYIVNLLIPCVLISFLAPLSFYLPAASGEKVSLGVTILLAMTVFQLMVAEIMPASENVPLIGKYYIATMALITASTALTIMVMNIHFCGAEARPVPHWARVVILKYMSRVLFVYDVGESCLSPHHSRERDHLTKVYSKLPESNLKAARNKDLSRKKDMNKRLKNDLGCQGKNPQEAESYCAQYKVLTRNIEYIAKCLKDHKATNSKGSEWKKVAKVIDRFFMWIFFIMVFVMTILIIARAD
Sequence of Neuronal acetylcholine receptor; alpha9/alpha10 (Q9GZZ6 whole entry): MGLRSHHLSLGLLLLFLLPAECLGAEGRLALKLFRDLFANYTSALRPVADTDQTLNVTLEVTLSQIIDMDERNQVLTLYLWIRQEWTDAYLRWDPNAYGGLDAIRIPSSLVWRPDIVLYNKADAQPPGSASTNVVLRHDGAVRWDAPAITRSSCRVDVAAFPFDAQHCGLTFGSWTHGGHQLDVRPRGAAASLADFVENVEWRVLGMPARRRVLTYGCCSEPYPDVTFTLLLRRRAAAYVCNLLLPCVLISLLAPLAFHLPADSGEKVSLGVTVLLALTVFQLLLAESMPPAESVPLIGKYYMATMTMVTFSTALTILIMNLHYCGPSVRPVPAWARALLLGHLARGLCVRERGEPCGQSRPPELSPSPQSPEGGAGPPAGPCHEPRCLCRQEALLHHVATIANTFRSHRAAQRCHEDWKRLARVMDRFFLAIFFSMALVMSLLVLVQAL

Activity calls are given as the source filed them. The rule behind the calls is not given here.

Sequence of Voltage-dependent N-type calcium channel subunit alpha-1B (Q00975 whole entry): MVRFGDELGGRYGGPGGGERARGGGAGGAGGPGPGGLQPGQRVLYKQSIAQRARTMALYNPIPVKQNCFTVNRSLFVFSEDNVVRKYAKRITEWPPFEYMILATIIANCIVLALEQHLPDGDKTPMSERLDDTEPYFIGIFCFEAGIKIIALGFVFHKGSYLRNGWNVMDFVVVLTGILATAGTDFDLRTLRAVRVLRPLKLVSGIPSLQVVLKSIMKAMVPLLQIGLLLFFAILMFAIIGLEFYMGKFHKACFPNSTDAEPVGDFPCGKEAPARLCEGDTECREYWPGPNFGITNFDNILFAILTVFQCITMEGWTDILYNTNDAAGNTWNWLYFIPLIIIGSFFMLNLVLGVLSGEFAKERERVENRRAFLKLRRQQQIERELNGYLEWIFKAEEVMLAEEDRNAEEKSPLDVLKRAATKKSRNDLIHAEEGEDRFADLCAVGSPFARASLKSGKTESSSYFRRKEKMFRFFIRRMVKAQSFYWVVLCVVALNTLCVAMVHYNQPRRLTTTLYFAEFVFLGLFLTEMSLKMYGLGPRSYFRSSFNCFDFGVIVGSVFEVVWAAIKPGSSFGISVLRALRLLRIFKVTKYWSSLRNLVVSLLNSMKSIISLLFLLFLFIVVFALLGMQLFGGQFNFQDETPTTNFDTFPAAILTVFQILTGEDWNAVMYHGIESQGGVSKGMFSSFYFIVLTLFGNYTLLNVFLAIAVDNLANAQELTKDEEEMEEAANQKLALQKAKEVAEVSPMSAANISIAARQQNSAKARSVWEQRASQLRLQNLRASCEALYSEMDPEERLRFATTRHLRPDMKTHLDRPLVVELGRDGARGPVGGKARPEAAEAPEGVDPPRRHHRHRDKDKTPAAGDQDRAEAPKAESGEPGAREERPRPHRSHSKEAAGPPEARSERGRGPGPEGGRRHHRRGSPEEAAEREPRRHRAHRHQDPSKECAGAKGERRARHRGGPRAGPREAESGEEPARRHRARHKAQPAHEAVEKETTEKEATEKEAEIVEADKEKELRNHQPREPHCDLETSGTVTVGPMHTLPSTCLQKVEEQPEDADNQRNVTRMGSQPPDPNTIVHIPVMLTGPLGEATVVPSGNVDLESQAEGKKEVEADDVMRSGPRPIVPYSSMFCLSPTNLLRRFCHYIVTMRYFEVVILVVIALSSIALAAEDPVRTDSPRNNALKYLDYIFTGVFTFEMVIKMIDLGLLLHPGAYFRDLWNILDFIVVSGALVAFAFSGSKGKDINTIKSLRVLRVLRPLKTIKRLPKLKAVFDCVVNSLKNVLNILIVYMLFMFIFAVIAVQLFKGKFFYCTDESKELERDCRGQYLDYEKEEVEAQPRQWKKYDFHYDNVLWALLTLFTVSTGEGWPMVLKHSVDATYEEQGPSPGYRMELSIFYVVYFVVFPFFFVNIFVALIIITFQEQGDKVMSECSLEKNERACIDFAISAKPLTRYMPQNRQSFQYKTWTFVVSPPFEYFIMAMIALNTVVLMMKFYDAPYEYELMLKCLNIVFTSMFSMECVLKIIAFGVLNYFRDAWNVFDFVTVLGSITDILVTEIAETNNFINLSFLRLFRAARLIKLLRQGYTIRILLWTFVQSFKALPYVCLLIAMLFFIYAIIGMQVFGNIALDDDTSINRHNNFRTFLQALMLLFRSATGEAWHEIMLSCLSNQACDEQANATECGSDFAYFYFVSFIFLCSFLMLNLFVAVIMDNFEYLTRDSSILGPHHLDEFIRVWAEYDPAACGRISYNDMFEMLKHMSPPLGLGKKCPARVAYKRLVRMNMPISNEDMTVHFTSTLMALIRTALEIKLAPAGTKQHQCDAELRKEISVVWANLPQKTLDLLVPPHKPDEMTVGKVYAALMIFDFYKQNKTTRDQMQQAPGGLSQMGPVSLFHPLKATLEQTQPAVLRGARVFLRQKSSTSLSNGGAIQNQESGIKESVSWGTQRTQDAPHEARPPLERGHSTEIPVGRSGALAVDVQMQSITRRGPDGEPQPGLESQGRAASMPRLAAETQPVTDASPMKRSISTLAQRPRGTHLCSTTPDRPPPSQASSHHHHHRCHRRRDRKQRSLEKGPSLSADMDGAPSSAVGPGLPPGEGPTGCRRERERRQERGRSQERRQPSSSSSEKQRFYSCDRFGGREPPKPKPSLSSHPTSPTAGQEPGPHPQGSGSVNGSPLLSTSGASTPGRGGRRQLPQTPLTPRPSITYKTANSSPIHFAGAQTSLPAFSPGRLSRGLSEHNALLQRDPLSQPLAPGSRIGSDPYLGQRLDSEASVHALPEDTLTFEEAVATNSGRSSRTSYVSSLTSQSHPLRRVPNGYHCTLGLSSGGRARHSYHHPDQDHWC

Take `C[C@@H](O)[C@@H]1NC(=O)[C@@H]2CSSC[C@@H](C(=O)N[C@@H](Cc3ccc(O)cc3)C(=O)O)NC(=O)[C@H](CCC(N)=O)NC(=O)[C@H](Cc3ccc(O)c(I)c3)NC(=O)[C@H](CCCNC(=N)N)NC(=O)[C@H](CSSC[C@H](NC(=O)CN)C(=O)N2)NC(=O)[C@H](CCCNC(N)=O)NC(=O)[C@@H]2CCCN2C(=O)[C@H](CC(=O)O)NC1=O`: the result with Rattus norvegicus was Active.

As to `CC[C@H](C)[C@@H]1NC(=O)[C@H](CCCNC(=N)N)NC(=O)[C@H](CCCNC(=N)N)NC(=O)[C@@H]2CSSC[C@H](NC(=O)[C@H](N)[C@H](C)O)C(=O)N[C@@H](CCCNC(=N)N)C(=O)N[C@@H](CO)C(=O)N[C@@H](CO)C(=O)NCC(=O)N[C@@H](CCCNC(=N)N)C(=O)N[C@@H](Cc3ccc(O)cc3)C(=O)N[C@H](CSSC[C@H](C(=O)N[C@H](C(N)=O)C(C)C)NC(=O)[C@H](C)NC(=O)[C@H](CC(=O)O)NC(=O)[C@H]([C@@H](C)O)NC1=O)C(=O)N[C@@H](CCCNC(=N)N)C(=O)N[C@@H](CO)C(=O)N1CCC[C@H]1C(=O)N[C@@H](Cc1ccc(O)cc1)C(=O)N[C@@H](CC(=O)O)C(=O)N[C@@H](CCCNC(=N)N)C(=O)N[C@@H](CCCNC(=N)N)C(=O)N[C@@H](CCCNC(=N)N)C(=O)N[C@@H](CCCNC(=N)N)C(=O)N[C@@H](Cc1ccc(O)cc1)C(=O)N2`, the results for the IC50 in assay [1] and in assay [2] were 3 nM and 116 nM, respectively.
